Read-outs that look alike come from different tables or passages of the source.
Columns and labels:
[1] = test system: SARS-CoV-2 (USA_WA1/2020); experiment: microbe, parasite or virus in culture; format: cell-based; details: for IC50: Severe acute respiratory syndrome coronavirus 2, Vero C1008, 72 h, read-out: Antiviral IC50
[2] = test system: MERS (EMC/2012); experiment: microbe, parasite or virus in culture; format: cell-based; details: for IC50: Middle East respiratory syndrome-related coronavirus
[3] = in vitro; details: African green monkey
[4] = test system: SARS-CoV-1 (Toronto 2); experiment: microbe, parasite or virus in culture; format: cell-based; details: for IC50: Severe acute respiratory syndrome coronavirus, Vero C1008, 72 h, read-out: Antiviral IC50
[5] = test system: SARS-CoV-2 (βCoV/KOR/KCDC03/2020); experiment: microbe, parasite or virus in culture; format: cell-based; details: for IC50: Severe acute respiratory syndrome coronavirus 2, Calu-3, 24 h
[6] = test system: SARS-CoV-2; format: cell-based
[7] = target: Cat D (Homo sapiens, UniProt P07339); details: cited from earlier work
Chain of Cat D (P07339 65-412): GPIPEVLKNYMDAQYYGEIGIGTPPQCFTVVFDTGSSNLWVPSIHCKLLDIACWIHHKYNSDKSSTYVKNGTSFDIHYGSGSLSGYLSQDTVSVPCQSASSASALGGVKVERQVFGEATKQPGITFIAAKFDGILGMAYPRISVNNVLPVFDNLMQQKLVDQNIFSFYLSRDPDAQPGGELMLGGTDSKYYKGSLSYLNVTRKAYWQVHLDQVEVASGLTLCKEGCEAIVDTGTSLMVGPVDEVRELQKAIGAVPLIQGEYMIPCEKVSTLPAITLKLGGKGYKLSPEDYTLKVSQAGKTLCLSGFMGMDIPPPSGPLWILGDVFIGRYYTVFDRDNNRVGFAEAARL

[8] = test system: EBOV (Makona); experiment: microbe, parasite or virus in culture; format: cell-based; details: Zaire ebolavirus, Vero
[9] = test system: NiV; experiment: organism not typed; format: cell-based; details: HeLa
[10] = target: Cat V (L2) (Homo sapiens, UniProt O60911); details: cited from earlier work
Chain of Cat V (L2) (Homo sapiens, UniProt O60911) (O60911 114-334): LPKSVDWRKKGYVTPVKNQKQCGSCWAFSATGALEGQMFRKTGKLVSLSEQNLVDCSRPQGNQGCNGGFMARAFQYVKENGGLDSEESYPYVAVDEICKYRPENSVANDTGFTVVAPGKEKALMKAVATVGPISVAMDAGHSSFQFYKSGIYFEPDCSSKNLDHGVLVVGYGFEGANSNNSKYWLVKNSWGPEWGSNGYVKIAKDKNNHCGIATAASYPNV

[11] = target: Caspase 3-4; details: cited from earlier work
[12] = target: Cat G (Homo sapiens, UniProt P08311); details: cited from earlier work
Chain of Cat G (P08311 21-244): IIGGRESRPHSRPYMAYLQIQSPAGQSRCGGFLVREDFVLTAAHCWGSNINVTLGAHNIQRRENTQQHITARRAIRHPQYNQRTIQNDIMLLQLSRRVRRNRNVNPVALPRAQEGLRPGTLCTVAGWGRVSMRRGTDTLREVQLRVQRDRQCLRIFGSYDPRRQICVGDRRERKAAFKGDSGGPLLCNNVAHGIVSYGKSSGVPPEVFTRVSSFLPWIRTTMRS

[13] = test system: EBOV (Kikwit); experiment: microbe, parasite or virus in culture; format: cell-based; details: Zaire ebolavirus, Vero
[14] = test system: WNV; experiment: microbe, parasite or virus in culture; format: cell-based; details: West Nile virus, HeLa
[15] = target: Cat L (Rattus norvegicus, UniProt P07154); details: cited from earlier work
Chain of Cat L (Rattus norvegicus, UniProt P07154) (P07154 114-334): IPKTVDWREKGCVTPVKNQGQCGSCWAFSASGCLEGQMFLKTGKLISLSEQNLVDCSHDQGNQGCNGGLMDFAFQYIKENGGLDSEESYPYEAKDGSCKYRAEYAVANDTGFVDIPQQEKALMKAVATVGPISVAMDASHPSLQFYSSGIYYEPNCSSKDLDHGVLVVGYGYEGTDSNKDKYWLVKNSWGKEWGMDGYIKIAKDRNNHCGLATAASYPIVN

[16] = target: Cat K (Mus musculus, UniProt P55097); details: cited from earlier work
Chain of Cat K (Mus musculus, UniProt P55097) (P55097 115-329): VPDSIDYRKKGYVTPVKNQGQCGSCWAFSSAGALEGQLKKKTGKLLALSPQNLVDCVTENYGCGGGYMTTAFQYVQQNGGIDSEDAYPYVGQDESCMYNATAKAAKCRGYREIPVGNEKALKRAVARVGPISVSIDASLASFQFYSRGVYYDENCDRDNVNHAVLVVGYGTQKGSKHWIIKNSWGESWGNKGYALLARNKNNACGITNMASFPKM

[17] = target: Cat L; details: cited from earlier work
[18] = test system: HTNV; experiment: organism not typed; format: cell-based; details: Vero
[19] = target: Calpain; details: cited from earlier work
[20] = test system: MARV; experiment: organism not typed; format: cell-based; details: HeLa
[21] = target: Cat L (Mus musculus, UniProt P06797); details: cited from earlier work
Chain of Cat L (Mus musculus, UniProt P06797) (P06797 114-334): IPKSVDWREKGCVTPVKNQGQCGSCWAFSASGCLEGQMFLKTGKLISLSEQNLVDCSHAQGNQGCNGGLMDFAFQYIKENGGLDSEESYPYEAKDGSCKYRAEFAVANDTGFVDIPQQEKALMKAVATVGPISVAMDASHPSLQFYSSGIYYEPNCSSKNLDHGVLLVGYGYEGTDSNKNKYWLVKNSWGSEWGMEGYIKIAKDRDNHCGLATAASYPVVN

[22] = test system: MERS-CoV; experiment: microbe, parasite or virus in culture; format: cell-based; details: Middle East respiratory syndrome-related coronavirus, MRC5
[23] = in vitro; details: Syrian hamster
[24] = target: Cat V (L2); details: cited from earlier work
[25] = target: Cat K (Macaca fascicularis, UniProt P61276); details: cited from earlier work
Chain of Cat K (Macaca fascicularis, UniProt P61276) (P61276 115-329): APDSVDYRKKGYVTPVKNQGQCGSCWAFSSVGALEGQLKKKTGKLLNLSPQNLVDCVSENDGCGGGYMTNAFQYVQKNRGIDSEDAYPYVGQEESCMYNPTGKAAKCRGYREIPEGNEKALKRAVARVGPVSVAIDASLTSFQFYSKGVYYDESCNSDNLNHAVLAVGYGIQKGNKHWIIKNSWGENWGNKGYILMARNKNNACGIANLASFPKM

[26] = target: Cat S (Rattus norvegicus, UniProt Q02765); details: cited from earlier work
Chain of Cat S (Q02765 113-330): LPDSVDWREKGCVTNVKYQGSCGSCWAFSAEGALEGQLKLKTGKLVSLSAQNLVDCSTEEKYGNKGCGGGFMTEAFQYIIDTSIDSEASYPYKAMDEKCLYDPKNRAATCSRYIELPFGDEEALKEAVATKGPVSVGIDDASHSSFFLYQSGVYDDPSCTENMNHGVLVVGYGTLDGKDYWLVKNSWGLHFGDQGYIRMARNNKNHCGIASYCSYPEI

[27] = test system: LASV; experiment: organism not typed; format: cell-based; details: HeLa
[28] = test system: EBOV (Makona); experiment: microbe, parasite or virus in culture; format: cell-based; details: Zaire ebolavirus, HeLa
[29] = test system: EBOV; details: rhesus monkey, in vivo
[30] = Vero C1008, read-out: Antiviral IC50 (std-incubation)
[31] = Vero C1008, read-out: pre-incubation IC50

Q: Which IC50 [1] does the source give for CCN(CC)CCCC(C)Nc1ccnc2cc(Cl)ccc12 (centres unmarked) [Chloroquine] here?
A: 3710 nM

Q: And the IC50 [2, 30]?
A: 21000 nM

Q: What about the CC50 [3] of the same compound?
A: > 30000 nM

Q: What about the IC50 [4] of the same compound?
A: 2020 nM

Q: For CCC(CC)COC(=O)[C@H](C)N[P@](=O)(OC[C@H]1O[C@@](C#N)(c2ccc3c(N)ncnn23)[C@H](O)[C@@H]1O)Oc1ccccc1 [Remdesivir], which “Selectivity Index CC50/IC50” value [1] is on record?
A: >7.2

Q: What about the IC50 [1] of the same compound?
A: 4150 nM

Q: What about the “Selectivity Index CC50/IC50” value [2] of the same compound?
A: >2.4

Q: What about the IC50 [2, 30] of the same compound?
A: 12500 nM

Q: And the CC50 [3]?
A: > 30000 nM

Q: What about the IC50 ([5]; read-out: Exp. 1 IC50) of the same compound?
A: 1940 nM

Q: And the IC50 ([5]; read-out: Exp. 2 IC50)?
A: 2150 nM

Q: And the “Selectivity Index CC50/IC50” value [4]?
A: >4.0

Q: What about the IC50 [4] of the same compound?
A: 7420 nM

Q: Which “Selectivity Index CC50/IC50” value [1] does the source give for CN(C)C(=O)COC(=O)Cc1ccc(OC(=O)c2ccc(NC(=N)N)cc2)cc1 [camostat] here?
A: >1

Q: And the “antiviral activity” value [1]?
A: no antiviral activity

Q: And the IC50 [1]?
A: > 50000 nM

Q: What about the “Selectivity Index CC50/IC50” value [2] of the same compound?
A: >1

Q: And the “antiviral activity” value [2]?
A: no antiviral activity

Q: And the IC50 [2, 30]?
A: > 50000 nM

Q: And the IC50 [2, 31]?
A: > 50000 nM

Q: What about the CC50 [3] of the same compound?
A: > 50000 nM

Q: What about the “SARS-CoV-2 antiviral activity, titer by plaque assay (FIG. 8A, words)” value [6] of the same compound?
A: dose-dependent SARS-CoV-2 antiviral activity

Q: And the “SARS-CoV-2 activity in Calu-3 cells, expression of N protein” value [5]?
A: reduced the expression of N protein

Q: And the IC50 ([5]; read-out: Exp. 1 IC50)?
A: 160 nM

Q: What about the IC50 ([5]; read-out: Exp. 2 IC50) of the same compound?
A: 290 nM

Q: And the “Selectivity Index CC50/IC50” value [4]?
A: >1

Q: And the “antiviral activity” value [4]?
A: no antiviral activity

Q: And the IC50 [4]?
A: > 50000 nM

Q: With CC(C)C[C@H](NC(=O)c1cc2ccccc2o1)C(=O)N[C@H]1CC[C@@H](C)N(S(=O)(=O)c2ccccn2)CC1=O [relacatib, N-((2S)-4-methyl-1-(((4S,7R)-7-methyl-3-oxo-1-(pyridin-2-ylsulfonyl)azepan-4-yl)amino)-1-oxopentan-2-yl)benzofuran-2-carboxamide] as the compound, how does the Ki [7] read?
A: > 10000 nM

Q: What about the IC50 [1] of the same compound?
A: 20 nM

Q: What about the EC90 [8] of the same compound?
A: 9710 nM

Q: And the EC50 [9]?
A: 15 nM

Q: What about the IC50 [2, 30] of the same compound?
A: 600 nM

Q: What about the IC50 [2, 31] of the same compound?
A: 680 nM

Q: What about the Ki [10] of the same compound?
A: 0.05 nM

Q: What about the Ki ([10]; read-out: Ki, app) of the same compound?
A: 0.053 nM

Q: What about the Ki [11] of the same compound?
A: > 10000 nM

Q: What about the Ki [12] of the same compound?
A: > 30000 nM

Q: And the EC50 [13]?
A: 2890 nM

Q: What about the EC50 [14] of the same compound?
A: > 100000 nM

Q: And the Ki [15]?
A: 0.2 nM

Q: And the Ki [16]?
A: 15 nM

Q: What about the Ki [17] of the same compound?
A: 0.3 nM

Q: And the EC50 [18]?
A: > 100000 nM

Q: What about the Ki [19] of the same compound?
A: 310 nM

Q: What about the CC50 [3] of the same compound?
A: > 50000 nM

Q: And the EC50 [20]?
A: 250 nM

Q: What about the “SARS-CoV-2 antiviral activity, titer by plaque assay (FIG. 8A, words)” value [6] of the same compound?
A: essentially no activity

Q: And the “SARS-CoV-2 activity in Calu-3 cells, expression of N protein” value [5]?
A: no measurable SARS-CoV-2 activity

Q: What about the IC50 ([5]; read-out: Exp. 1 IC50) of the same compound?
A: > 50000 nM

Q: What about the IC50 ([5]; read-out: Exp. 2 IC50) of the same compound?
A: > 50000 nM

Q: What about the Ki [21] of the same compound?
A: 0.2 nM

Q: And the EC50 [22]?
A: 40 nM

Q: What about the CC50 [23] of the same compound?
A: > 20000 nM

Q: And the Ki [24]?
A: 0.7 nM

Q: What about the IC50 [4] of the same compound?
A: 230 nM

Q: And the Ki [25]?
A: 0.04 nM

Q: What about the Ki [26] of the same compound?
A: 5.5 nM

Q: What about the EC50 [27] of the same compound?
A: > 100000 nM

Q: And the EC50 [28]?
A: 360 nM

Q: And the “GI pathology in colon (FIG. 5C, words)” value [29]?
A: enhanced GI pathology noted in colon

Q: And the “Kaplan-Meier survival, P treatment versus vehicle control (Log-rank Mantel-Cox test)” value ([29]; po)?
A: 0.0565
